This note sets out measurements from patent publication US8519143B2, “Derivatives of (bridged piperazinyl)-1-alkanone and use thereof as p75 inhibitors” (Sanofi, priority 2008, dated 2013).

For experiment [1], the system named is human neuroblastoma strains SH-SY-5Y and SK-N-BE Bep 75. In words: Measurement of apoptosis (NGF-induced, cell death detection ELISA). The format is cell-based. The following applies: SH-SY5Y, NGF 10 ng/ml, 48 h (SH-SY-5Y) or 24 h (SK-N-BE Bep 75), cell strain not given, read-out: IC50 of NGF-induced apoptosis inhibition. The procedure: The SH-SY-5Y strain (human neuroblastoma) is cultured conventionally in a DMEM culture medium (Dulbecco's Modified Eagle's Medium) (Gibco BRL, France) containing FCS (5%) (foetal calf serum) (Boehringer Mannheim, Germany), sodium pyruvate (1 mM) and glutamine (4 mM) in collagen-coated culture flasks (Becton Dickinson, France).
(§1) The parent strain SK-N-BE (human neuroblastoma) and the clone Bep 75, stably expressing the whole form of the human p75^NTR receptor (SK-N-BE Bep 75), are cultured conventionally in an RPMI culture medium containing FCS (5%), sodium pyruvate (1 mM) and glutamine (4 mM). For the SK-N-BE Bep 75 cells, hygromycin (200 μl/20 ml of medium) is added as selection agent.
The cells (human neuroblastoma strains SH-SY-5Y and SK-N-BE Bep 75) are placed in Petri dishes 35 mm in diameter (Biocoat collagen I (10^5 cells/well)) in an appropriate culture medium containing 5% FCS for 24 h. The culture medium is then removed, the cells are rinsed with PBS (Dulbecco's Phosphate buffered saline), and then either fresh medium containing 5% FCS, or medium containing NGF (at the concentration of 10 ng/ml) or beta-amyloid peptide (Aβ1-40) (at the concentration of 10 μM) is added, in the presence or absence of the compounds according to the invention. The degrees of apoptosis are measured 48 hours after the treatments in the case of the SH-SY-5Y strain, and 24 hours after the treatments in the case of the SK-N-BE Bep 75 strain, by quantifying the cytoplasmic histones associated with DNA fragments (cell death detection ELISA, Boehringer Mannheim, Germany). The degrees of apoptosis are expressed as quantity of oligonucleosomes/10^5 cells. Each value corresponds to the mean of 9 experimental points distributed over 3 independent experiments.

Experiment [2] addresses T1, p75^NTR receptor (Homo sapiens, UniProt P08138).
T1 sequence (P08138 29-427): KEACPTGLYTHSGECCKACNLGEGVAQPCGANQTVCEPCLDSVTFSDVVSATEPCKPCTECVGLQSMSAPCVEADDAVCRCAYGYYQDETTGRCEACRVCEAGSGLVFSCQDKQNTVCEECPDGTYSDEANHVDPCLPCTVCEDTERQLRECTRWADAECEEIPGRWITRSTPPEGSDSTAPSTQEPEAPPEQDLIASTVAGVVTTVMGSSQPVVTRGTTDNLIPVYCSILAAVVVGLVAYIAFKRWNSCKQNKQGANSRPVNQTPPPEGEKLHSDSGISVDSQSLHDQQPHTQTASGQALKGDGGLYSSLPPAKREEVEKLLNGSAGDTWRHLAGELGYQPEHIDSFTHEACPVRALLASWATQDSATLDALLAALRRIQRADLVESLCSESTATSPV
The experiment can be described thus: Binding of 125I NGF to the p75NTR receptor on SK-N-BE Bep 75 cell suspension. Also noted: the whole form of the human p75^NTR receptor; expressed in transfected cells; host or cells: SK-N-BE (human neuroblastoma), clone Bep 75, hygromycin selection. How it is done: as §1
Study of the binding of ^125I NGF to the p75^NTR receptor The study of NGF binding (nerve growth factor radiolabelled with iodine-125, Amersham—2000 Ci/mmol) is carried out on a cell suspension of the SK-N-BE Bep 75 strain in accordance with the method described by Weskamp (Neuron, 1991, 6, 649-663). The non-specific binding is determined by measuring the total binding after preincubation for one hour with cells at 37° C. in the presence of non-radiolabelled NGF (1 μM). The specific binding is calculated by the difference between the total binding measurement and the non-specific binding measurement. The competition experiments are carried out using an iodinated NGF (^125I NGF) concentration of 0.3 nM.

The target in experiment [3] is T1, p75^NTR receptor. The experiment can be described thus: p75NTR receptor dimerisation independently of its ligand (soluble p75NTR-alkaline phosphatase binding to SK-N-BE Bep 75 cells). Also noted: the whole form of the human p75^NTR receptor; expressed in transfected cells; host or cells: SK-N-BE Bep 75 cells (membrane receptor); HEK293 cells transfected for 48 h (secreted soluble fusion). How it is done:
as §1
Study of p75^NTR receptor dimerisation independently of its ligand The study of p75^NTR receptor dimerisation is carried out on a cell suspension of the SK-N-BE Bep 75 strain. The cells (2.5×10^4 cells/well) are placed in wells (96-well plate) for 24 h, and then preincubated for 1 h at 37° C. in the presence or absence of the compounds according to the invention. Supernatant, derived from culturing HEK293 human cells of renal origin expressing, after transfection for 48 h, and secreting a soluble form of the p75^NTR receptor (extracellular part of the receptor) coupled to an alkaline phosphatase, is then added at the final concentration of 10 nM. The quantification of the specific binding of the soluble p75^NTR receptor to the receptor present on SK-N-BE Bep 75 cells is determined by measuring the enzymatic alkaline phosphatase activity after incubation of the cells for 1 hour at 37° C. in the presence of the supernatant. After filtration and transfer of the filters into 24-well plates, the alkaline phosphatase activity is determined by adding CDP-Star chemiluminescent substrate (ready-to-use, Roche).

Regarding `O=C(CN1CC2CCC(C1)N2c1ccc(C(F)(F)F)cn1)N1CC=C(c2cccc(C(F)(F)F)c2)CC1` [Compound No. 1, 1-[4-(3-trifluoromethylphenyl)-3,6-dihydro-2H-pyridin-1-yl]-2-[8-(5-trifluoromethylpyridin-2-yl)-3,8-diazabicyclo[3.2.1]oct-3-yl]ethanone], the figures for the IC50 (in experiment [1]; at p75^NTR receptor [2]; at p75^NTR receptor [3]) were 1.33 nM, 1.35 nM and 23.4 nM, respectively.
For the compound `O=C(CN1CC2CCC(C1)N2c1ncccn1)N1CC=C(c2ccc(Cl)cc2)CC1` [Compound No. 2, 1-[4-(4-chlorophenyl)-3,6,-dihydro-2H-pyridin-1-yl]-2-(8-pyrimidin-2-yl-3,8-diazabicyclo[3.2.1]oct-3-yl)ethanone], the IC50 at p75^NTR receptor [2] amounted to 0.18 nM.
As to `O=C(CN1C2CCC1CN(c1cnccn1)C2)N1CC=C(c2cccc(C(F)(F)F)c2)CC1` [Compound No. 3, 2-(3-pyrazin-2-yl-3,8-diazabicyclo[3.2.1]oct-8-yl)-1-[4-(3-trifluoromethylphenyl)-3,6-dihyro-2H-pyridin-1-yl]ethanone], the IC50 in experiment [1] was 0.067 nM; at p75^NTR receptor [3], 0.05 nM.
In the case of `O=C(CN1CC2CCC(C1)N2c1ccc(C(F)(F)F)cn1)N1CC=C(c2ccc(Cl)cc2)CC1` [Compound No. 7, 1-[4-(4-chlorophenyl)-3,6-dihydro-2H-pyridin-1-yl]-2-[8-(5-trifluoromethylpyridin-2-yl)-3,8-diazabicyclo[3.2.1]oct-3-yl]ethanone], on p75^NTR receptor [2], the IC50 was found to be 0.29 nM.
`O=C(CN1CC2CCC(C1)N2c1ccc(C(F)(F)F)cn1)N1CC=C(c2ccc(Cl)c(C(F)(F)F)c2)CC1` [Compound No. 8, 1-[4-(4-chloro-3-trifluoromethylphenyl)-3,6-dihydro-2H-pyridin-1-yl]-2-[8-(5-trifluoromethylpyridin-2-yl)-3,8-diazabicyclo[3.2.1]oct-3-yl]ethanone]: the IC50 in experiment [1] is 2.24 nM; at p75^NTR receptor [3], 0.68 nM.
For `O=C(CN1CC2CCC(C1)N2c1ncc(F)cn1)N1CC=C(c2ccc(Cl)c(C(F)(F)F)c2)CC1` [Compound No. 11, 1-[4-(4-chloro-3-trifluoromethylphenyl)-3,6-dihydro-2H-pyridin-1-yl]-2-[8-(5-fluoropyrimidin-2-yl)-3,8-diazabicyclo[3.2.1]oct-3-yl]ethanone], the IC50 in experiment [1] is 0.21 nM; on p75^NTR receptor [2], 0.98 nM; on p75^NTR receptor [3], 0.2 nM.
For `O=C(CN1CC2CCC(C1)N2c1cccnc1)N1CC=C(c2ccc(Cl)c(C(F)(F)F)c2)CC1` [Compound No. 27, 1-[4-(4-chloro-3-trifluoromethylphenyl)-3,6-dihydro-2H-pyridin-1-yl]-2-(8-pyridin-3-yl-3,8-diazabicyclo[3.2.1]oct-3-yl)ethanone], the IC50 in experiment [1] was 0.088 nM; on p75^NTR receptor [3], 0.23 nM.
For the compound `COC(=O)c1ccc(N2C3CCC2CN(CC(=O)N2CC=C(c4ccc(Cl)c(C(F)(F)F)c4)CC2)C3)nc1` [Compound No. 28, 6-(3-{2-[4-(4-chloro-3-trifluoromethylphenyl)-3,6-dihydro-2H-pyridin-1-yl]-2-oxoethyl}-3,8-diazabicyclo[3.2.1]oct-8-yl)nicotinic acid methyl ester], the IC50 on p75^NTR receptor [3] turned out to be 9.84 nM.
With `O=C(O)c1ccc(N2C3CCC2CN(CC(=O)N2CC=C(c4ccc(Cl)c(C(F)(F)F)c4)CC2)C3)nc1` [Compound No. 29, 6-(3-{2-[4-(4-chloro-3-trifluoromethylphenyl)-3,6-dihydro-2H-pyridin-1-yl]-2-oxoethyl}-3,8-diazabicyclo[3.2.1]oct-8-yl)nicotinic acid], the IC50 in experiment [1] is 0.22 nM; on p75^NTR receptor [3], 0.14 nM.
On p75^NTR receptor [3], `COC(=O)c1cccc(C2=CCCN(C(=O)CN3CC4CCC(C3)N4c3ncc(F)cn3)C2)c1` [Compound No. 53, 3-(1-{2-[8-(5-fluoropyrimidin-2-yl)-3,8-diazabicyclo[3.2.1]oct-3-yl]acetyl}-1,2,5,6-tetrahydropyridin-3-yl)benzoic acid methyl ester] yielded an IC50 of 2.08 nM.
